From patent US20240150277A1, “Covalent PPARG inverse-agonists” (Bayer Aktiengesellschaft, priority 2022, published 2024)
Like-named read-outs stand apart in the source and are kept apart here.

Tests used:
UMUC9 cells = test: Proliferation UMUC9 H2B-GFP assay (Incucyte); assay type: cell-based; conditions: 7 days of treatment; for Emax: UM-UC-9, 168 h, % efficacy (span); for IC50: UM-UC-9, relative IC50, Day 1 subtracted, percentage of DMSO control
Procedure: Proliferation UMUC9 H2B-GFP assay
Instrument: Incucyte® (Sartorius).
Description: Incucyte® Proliferation Assay measures cell proliferation based on nuclei count using live-cell time-lapse imaging. […] Measurements were performed on the day of treatment (Day 1 reading) and after 7 days of treatment (Day 8 reading). Green fluorescence in cell nuclei is measured using the instrument (Image Channels: Phase, Green; Acquisition time: 300 ms; Magnification: 4×).
Analysis: Selected metrics for analysis: Phase Object Confluence (Percent), Nuclei Count (1/Well) and Total Nuclei Area (μm^2/Well). Day 1 measurements were subtracted from each Day 8 measurement and expressed as percentage of the vehicle (DMSO) control. Percentage proliferation values were then plotted against compound concentration using GraphPad PRISM software. The Sigmoidal 4PL X is log (concentration) model of […] was used. Relative IC50 values and % efficacy (span) is reported below.

PPARG receptors = biological target: T1, PPARG receptors (Homo sapiens, UniProt P37231); test: RT-112-FABP4-NLuc Reporter Gene Assay (inverse agonism); assay type: cell-based; conditions: incubated over night; for IC50: 50 μM to 0.03 nM; for Emax: RT112/84, read-out: PPARG_RT-112_FABP4_NLuc_inverse agonist Efficacy - [%], bladder cancer cell line RT-112/84, NanoLuc in FABP4 3′ UTR
T1 construct: leading to PPARG dependent expression of the NanoLuc@ Luciferase; endogenous in cells
T1 sequence (P37231 1-505): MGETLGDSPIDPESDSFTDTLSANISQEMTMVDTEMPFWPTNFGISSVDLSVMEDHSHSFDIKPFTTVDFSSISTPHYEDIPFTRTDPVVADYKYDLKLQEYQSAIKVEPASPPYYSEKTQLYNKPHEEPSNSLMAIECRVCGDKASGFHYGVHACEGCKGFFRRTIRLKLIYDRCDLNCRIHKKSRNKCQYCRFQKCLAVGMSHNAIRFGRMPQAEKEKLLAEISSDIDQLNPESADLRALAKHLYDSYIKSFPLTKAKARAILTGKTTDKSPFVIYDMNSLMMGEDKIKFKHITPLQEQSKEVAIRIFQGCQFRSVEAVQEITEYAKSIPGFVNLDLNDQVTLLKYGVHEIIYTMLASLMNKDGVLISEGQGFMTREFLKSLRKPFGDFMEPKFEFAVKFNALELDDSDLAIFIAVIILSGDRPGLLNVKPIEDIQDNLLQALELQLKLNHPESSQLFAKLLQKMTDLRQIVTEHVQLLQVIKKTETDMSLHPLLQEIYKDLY
Procedure: Inverse agonists reduce the basal expression of the Luciferase resulting in a decrease of the Luciferase signal after addition of substrate and cell lysis. To exclude toxic effects of the compounds a parallel measurement of cell viability was performed based on the CellTiter Glo Assay (Promega).
On the next day 10 μl of test compounds dissolved in DMEM/F12 2% FBS and 0,01% BSA are placed in the wells of the microtiter plates. Final concentrations ranged from 50 μM to 0.03 nM. […] On the next day the NanoLuc Luciferase activity was measured by addition of 40 μl of NanoLuc substrate and lysis buffer (Promega, Madison, Wisconsin) diluted in 2 mM Ca-tyrode buffer (20 mM HEPES, 130 mM NaCl, 5 mM KCl, 5 mM NaHCO3, 2 mM MgCl2, pH 7,4). The resulting light signal was measured for 60 seconds in a luminometer. Every sample was tested in quadruples and mean values were used to calculate the IC50 values and efficacies of the compounds.

[1] = PPARG_RT-112_FABP4_NLuc_inverse agonist IC50 - [mol/l], bladder cancer cell line RT-112/84, NanoLuc in FABP4 3′ UTR
[2] = read-out: PPARG_RT-112_FABP4_NLuc_inverse agonist IC50 - [mol/l], bladder cancer cell line RT-112/84, NanoLuc in FABP4 3′ UTR

SMILES	Emax (UMUC9 cells)	IC50 (UMUC9 cells)	IC50 (PPARG receptors; [1])	Emax (PPARG receptors)	IC50 (PPARG receptors; [2])	PPARG_RT-112_FABP4_NLuc_inverse agonist Efficacy - [%] (PPARG receptors; bladder cancer cell line RT-112/84, NanoLuc in FABP4 3′ UTR)
COc1ccccc1CNC(=O)c1ccc(Cl)c(C(=O)Nc2ccccc2)c1 [Example 46, 4-chloro-N^1-[(2-methoxyphenyl)methyl]-N^3-phenylbenzene-1,3-dicarboxamide]	70.6%	2.63 µM	–	–	–	–
Cc1ccc(NC(=O)c2cc(C(=O)NCc3ccccc3)c(F)cc2Cl)cc1 [Example 24, N^1-benzyl-4-chloro-6-fluoro-N^3-(4-methylphenyl)benzene-1,3-dicarboxamide]	24.4%	0.0251 µM	0.00765 µM	92.5%	–	–
O=C(NCc1ccc(F)cc1)c1ccc(Cl)c(C(=O)Nc2ccccc2)c1 [Example 45, 4-chloro-N^1-[(4-fluorophenyl)methyl]-N^3-phenylbenzene-1,3-dicarboxamide]	57.6%	–	–	–	–	–
O=C(NCc1ccc(F)c(F)c1)c1cc(C(=O)Nc2ccccn2)c(Cl)cc1F [Example 34, 4-chloro-N^1-(3,4-difluorobenzyl)-6-fluoro-N^3-(pyridin-2-yl)isophthalamide]	100%	–	–	95%	0.0545 µM	–
O=C(NCc1ccccc1)c1ccc(Cl)c(C(=O)Nc2ccccc2)c1 [Example 43, N^1-benzyl-4-chloro-N^3-phenylbenzene-1,3-dicarboxamide]	27.1%	–	–	–	–	–
O=C(NCc1ccccc1)c1cc(Cl)c(Br)c(C(=O)Nc2ccccc2)c1 [Example 49, N^1-benzyl-4-bromo-5-chloro-N^3-phenylbenzene-1,3-dicarboxamide]	34.5%	3.17 µM	0.00099 µM	72.5%	–	–
Cc1ccccc1CNC(=O)c1ccc(Cl)c(C(=O)Nc2ccccc2)c1 [Example 47, 4-chloro-N^1-[(2-methylphenyl)methyl]-N^3-phenylbenzene-1,3-dicarboxamide]	66.9%	2.24 µM	0.895 µM	92%	–	–
O=C(NCc1ccccc1)c1ccc(Br)c(C(=O)Nc2ccccc2)c1 [Example 48, N^1-benzyl-4-bromo-N^3-phenylbenzene-1,3-dicarboxamide]	43.1%	–	–	–	–	–
O=C(NCc1ccc(F)c(F)c1)c1cc(Cl)c(Cl)c(C(=O)Nc2ccc(C(F)(F)F)cn2)c1 [Example 13, 4,5-dichloro-N′-[(3,4-difluorophenyl)methyl]-N^3-[5-(trifluoromethyl)pyridin-2-yl]benzene-1,3-dicarboxamide]	77%	4.8 µM	0.0004 µM	77.5%	–	–
COc1ccccc1CNC(=O)c1cc(Cl)c(Cl)c(C(=O)Nc2ccc(N3CCOCC3)cn2)c1 [Example 38, 4,5-dichloro-N^1-(2-methoxybenzyl)-N^3-(5-morpholinopyridin-2-yl)isophthalamide]	49.5%	0.00423 µM	0.00073 µM	98.5%	–	–
O=C(NCc1ccc(F)c(F)c1)c1ccc(Cl)c(C(=O)Nc2ccccc2)c1 [Example 44, 4-chloro-N^1-[(3,4-difluorophenyl)methyl]-N^3-phenylbenzene-1,3-dicarboxamide]	103%	–	–	51.5%	7.4 µM	–
Cc1cccc(-c2nc3cc(NC(=O)c4cc(C(=O)NCc5ccc(F)cc5)cc(Cl)c4Cl)ccc3o2)c1 [Example 9, 4,5-dichloro-N^1-[(4-fluorophenyl)methyl]-N^3-[2-(3-methylphenyl)-1,3-benzoxazol-5-yl]benzene-1,3-dicarboxamide]	58.1%	0.00451 µM	0.000355 µM	105%	–	–
O=C(NCc1ccccc1)c1cc(Cl)c(Cl)c(C(=O)Nc2ccc(OC(F)F)cc2)c1F [Example 31, N^1-benzyl-4,5-dichloro-N^3-[4-(difluoromethoxy)phenyl]-2-fluorobenzene-1,3-dicarboxamide]	–	> 6 µM	0.0003 µM	86.8%	–	–
Cc1c(F)c(C(=O)NCc2ccc(F)c(F)c2)cc(C(=O)Nc2ccc(OCC(C)(C)O)cn2)c1Cl [Example 52, 4-chloro-N^1-[(3,4-difluorophenyl)methyl]-6-fluoro-N^3-[5-(2-hydroxy-2-methylpropoxy)pyridin-2-yl]-5-methylbenzene-1,3-dicarboxamide]	28.6%	0.746 µM	0.0015 µM	96%	–	–
Cc1cc(-c2nnco2)ccc1NC(=O)c1cc(C(=O)NCc2ccc(F)c(F)c2)c(F)cc1Cl [Example 10, 4-chloro-N^1-[(3,4-difluorophenyl)methyl]-6-fluoro-N^3-[2-methyl-4-(1,3,4-oxadiazol-2-yl)phenyl]benzene-1,3-dicarboxamide]	86.7%	–	–	108%	0.0048 µM	–
Cc1cc(N2CCOCC2)cnc1NC(=O)c1cc(C(=O)NCc2ccc(F)c(F)c2)c(F)c(C)c1Cl [Example 18, 4-chloro-N^1-[(3,4-difluorophenyl)methyl]-6-fluoro-5-methyl-N^3-[3-methyl-5-(morpholin-4-yl)pyridin-2-yl]benzene-1,3-dicarboxamide]	59.5%	0.031 µM	0.00135 µM	95%	–	–
CC(C)(O)c1ccc(NC(=O)c2cc(C(=O)NCc3ccc(F)c(F)c3)c(F)cc2Cl)cc1 [Example 51, 4-chloro-N^1-[(3,4-difluorophenyl)methyl]-6-fluoro-N^3-[4-(2-hydroxypropan-2-yl)phenyl]benzene-1,3-dicarboxamide]	69.2%	0.0385 µM	–	–	–	–
COCCOCc1cc(F)ccc1CNC(=O)c1cc(C(=O)Nc2ccc(C(F)(F)F)cc2C)c(Cl)cc1F [Example 26, 4-chloro-6-fluoro-N^1-({4-fluoro-2-[(2-methoxyethoxy)methyl]phenyl}methyl)-N^3-[2-methyl-4-(trifluoromethyl)phenyl]benzene-1,3-dicarboxamide]	73.4%	0.0275 µM	–	94%	0.00735 µM	–
COCCOc1ccc(NC(=O)c2cc(C(=O)NCc3ccc(F)c(F)c3)c(F)c(C)c2Cl)c(C)c1 [Example 19, 4-chloro-N^1-[(3,4-difluorophenyl)methyl]-6-fluoro-N^3-[4-(2-methoxyethoxy)-2-methylphenyl]-5-methylbenzene-1,3-dicarboxamide]	65.9%	0.0116 µM	0.00122 µM	144%	–	–
Cc1cc(N2CCOCC2)cnc1NC(=O)c1cc(C(=O)NCc2ccc(F)c(F)c2)c(F)cc1Cl [Example 41, 4-chloro-N^1-(3,4-difluorobenzyl)-6-fluoro-N^3-(3-methyl-5-morpholinopyridin-2-yl)isophthalamide]	98.9%	–	–	–	–	–
O=C(NCc1ccccc1)c1cc(C(=O)Nc2ccccc2)c(Cl)cc1F [Example 28, N^1-benzyl-4-chloro-6-fluoro-N^3-phenylbenzene-1,3-dicarboxamide]	31.2%	–	–	–	–	–
O=C(NCc1ccccc1)c1cc(Cl)c(Cl)c(C(=O)Nc2ccccc2)c1 [Example 16, N1-benzyl-4,5-dichloro-N^3-phenylbenzene-1,3-dicarboxamide]	24.8%	0.0247 µM	–	–	–	–
Cc1cc(C(F)(F)F)ccc1NC(=O)c1cc(C(=O)NC(CO)c2ccccc2)c(F)cc1Cl (single isomer, unassigned) [Example 29, 4-chloro-6-fluoro-N^1-[(1R*)-2-hydroxy-1-phenylethyl]-N^3-[2-methyl-4-(trifluoromethyl)phenyl]benzene-1,3-dicarboxamide]	–	–	0.13 µM	–	–	81.00%
O=C(NCc1ccccc1)c1cc(Cl)c(Cl)c(C(=O)Nc2ccc(Cl)cn2)c1F [Example 32, N^1-benzyl-4,5-dichloro-N^3-(5-chloropyridin-2-yl)-2-fluorobenzene-1,3-dicarboxamide]	–	–	0.0013 µM	74%	–	–
